Measurements as given in US9120807B2, “Thienopyrimidine compounds” (Vernalis (R&D) Ltd., priority 2007, dated 2015).

Columns and labels:
Type in all cases: cell-based
[1] = target: human adenosine A3 receptor (Homo sapiens (Human), UniProt P0DMS8); experiment: FLIPR calcium flux functional assay, A3 receptor; conditions: for Kb: mammalian cell line expressing human A3, calcium flux; for A3/A2b: selectivity ratio of Kb values
Protocol: (§1) The use of a Fluorometric Imaging Plate Reader (FLIPR) to measure calcium flux in Adenosine-receptor expressing cells is a well-established technique. In this assay calcium flux is triggered by receptor activation and measured through the fluorescence of an incorporated calcium-sensitive dye. The potencies shown were determined using expressed human adenosine A2B receptors in mammalian cell lines. Selectivity values were obtained by using mammalian cell lines expressing the human adenosine A1, A2A and A3 receptors. Compound potency was determined from dose response curves and is reported as an IC50 value.
(§2) All examples were tested for activity in the functional assay described above.

[2] = target: human adenosine A1 receptor (Homo sapiens (Human), UniProt P30542); experiment: FLIPR calcium flux functional assay, A1 receptor; conditions: for Kb: mammalian cell line expressing human A1, calcium flux; for A1/A2b: selectivity ratio of Kb values
Chain of human adenosine A1 receptor (P30542 whole entry): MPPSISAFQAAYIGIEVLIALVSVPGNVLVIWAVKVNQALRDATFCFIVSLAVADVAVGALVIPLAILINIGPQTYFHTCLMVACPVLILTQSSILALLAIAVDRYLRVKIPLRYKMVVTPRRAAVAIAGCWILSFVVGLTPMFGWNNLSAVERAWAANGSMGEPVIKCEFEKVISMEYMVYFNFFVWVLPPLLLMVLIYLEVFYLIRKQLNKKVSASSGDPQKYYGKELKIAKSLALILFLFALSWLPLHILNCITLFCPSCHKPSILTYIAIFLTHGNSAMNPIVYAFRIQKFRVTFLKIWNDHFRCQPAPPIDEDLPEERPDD
Protocol: as §1, §2

[3] = target: human adenosine A2B receptors (Homo sapiens (Human), UniProt P29275); experiment: FLIPR calcium flux functional assay, A2B receptor; conditions: mammalian cell line expressing human A2B
Chain of human adenosine A2B receptors (P29275 whole entry): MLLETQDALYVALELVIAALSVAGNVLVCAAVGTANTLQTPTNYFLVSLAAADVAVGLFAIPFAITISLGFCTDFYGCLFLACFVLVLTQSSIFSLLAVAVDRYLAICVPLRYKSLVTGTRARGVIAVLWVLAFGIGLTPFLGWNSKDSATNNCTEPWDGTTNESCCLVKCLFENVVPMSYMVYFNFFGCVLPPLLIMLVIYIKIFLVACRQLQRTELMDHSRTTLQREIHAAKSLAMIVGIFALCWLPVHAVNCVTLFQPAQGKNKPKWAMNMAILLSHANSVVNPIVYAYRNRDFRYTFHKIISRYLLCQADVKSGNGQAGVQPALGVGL
Protocol: as §1, §2

[4] = target: human adenosine A2A receptor (Homo sapiens (Human), UniProt P29274); experiment: FLIPR calcium flux functional assay, A2A receptor; conditions: for Kb: mammalian cell line expressing human A2A, calcium flux; for A2a/A2b: selectivity ratio of Kb values
Chain of human adenosine A2A receptor (P29274 whole entry): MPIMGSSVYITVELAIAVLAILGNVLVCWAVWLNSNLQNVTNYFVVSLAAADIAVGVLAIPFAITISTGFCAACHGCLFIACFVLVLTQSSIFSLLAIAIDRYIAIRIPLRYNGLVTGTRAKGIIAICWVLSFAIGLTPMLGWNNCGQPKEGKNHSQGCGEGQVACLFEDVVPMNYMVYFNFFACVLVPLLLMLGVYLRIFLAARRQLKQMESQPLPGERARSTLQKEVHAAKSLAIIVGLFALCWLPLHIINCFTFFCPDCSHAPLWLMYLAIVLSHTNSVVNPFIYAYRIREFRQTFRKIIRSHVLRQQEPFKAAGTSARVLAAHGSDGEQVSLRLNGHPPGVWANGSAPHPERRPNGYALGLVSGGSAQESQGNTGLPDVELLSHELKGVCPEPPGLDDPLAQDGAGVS
Protocol: as §1, §2

Chain of human adenosine A3 receptor (P0DMS8 whole entry): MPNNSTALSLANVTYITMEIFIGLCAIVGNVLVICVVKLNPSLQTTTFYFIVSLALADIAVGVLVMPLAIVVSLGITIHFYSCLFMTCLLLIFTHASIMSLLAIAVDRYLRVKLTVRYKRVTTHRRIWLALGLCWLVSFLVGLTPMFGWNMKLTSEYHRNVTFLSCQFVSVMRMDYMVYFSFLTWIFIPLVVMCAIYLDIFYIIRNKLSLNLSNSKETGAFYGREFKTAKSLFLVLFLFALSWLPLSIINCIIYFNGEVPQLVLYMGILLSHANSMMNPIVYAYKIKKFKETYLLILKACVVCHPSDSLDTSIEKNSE

| SMILES | Kb [1] [nM] | A3/A2b [1] | Kb [2] [nM] | A1/A2b [2] | Kb [3] [nM] | Kb [4] [nM] | A2a/A2b [4] |
| --- | --- | --- | --- | --- | --- | --- | --- |
| CNc1cc2nc(NCc3cccnc3)nc(C(=O)c3cccs3)c2s1 [Example 6, {6-Methylamino-2-[(pyridin-3-ylmethyl)-amino]-thieno[3,2-d]pyrimidin-4-yl}-thiophen-2-yl-methanone] | 22.9 | 16 | 57.6 | 41 | 1.4 | 277 | 198 |
| CN(C)c1cc2nc(NCc3cccnc3)nc(C(=O)c3cccs3)c2s1 [Example 7, {6-dimethylamino-2-[(pyridine-3-ylmethyl)-amino]-thieno[3,2-d]pyrimidin-4-yl}-thiophen-2-yl-methanone] | 130 | 20 | 19.4 | 3 | 6.5 | 318 | 49 |
| CCNc1cc2nc(NCc3cccnc3)nc(C(=O)c3cccs3)c2s1 [Example 8, {6-Ethylamino-2-[(pyridin-3-ylmethyl)-amino]-thieno[3,2-d]pyrimidin-4-yl}-thiophen-2-yl-methanone] | 37.3 | 6 | 118 | 18 | 6.7 | 726 | 109 |
| Nc1cc2nc(NCc3cccnc3)nc(C(=O)c3cccs3)c2s1 [Example 9, {6-Amino-2-[(pyridin-3-ylmethyl)-amino]-thieno[3,2-d]pyrimidin-4-yl}-thiophen-2-yl-methanone] | 233 | 33 | 1100 | 155 | 7.1 | 1400 | >196 |

Second part, the compound after the results:

| Kb [1] [nM] | A3/A2b [1] | Kb [2] [nM] | A1/A2b [2] | Kb [3] [nM] | Kb [4] [nM] | A2a/A2b [4] | SMILES |
| --- | --- | --- | --- | --- | --- | --- | --- |
| 747 | 14 | 161 | 3 | 52.3 | 3750 | >71 | C=Cc1cc2nc(NCc3cccnc3)nc(C(=O)c3cccs3)c2s1 [Example 10, {2-[(Pyridin-3-ylmethyl)-amino]-6-vinyl-thieno[3,2-d]pyrimidin-4-yl}-thiophen-2-yl-methanone] |
| 361 | 10 | 216 | 6 | 36.7 | 3750 | >102 | CCc1cc2nc(NCc3cccnc3)nc(C(=O)c3cccs3)c2s1 [Example 11, {6-Ethyl-2-[(pyridin-3-ylmethyl)-amino]-thieno[3,2-d]pyrimidin-4-yl}-thiophen-2-yl-methanone] |
| 308 | 4 | 256 | 4 | 68.9 | 828 | 12 | O=C(c1cccs1)c1nc(NCc2cccnc2)nc2cc(NCc3cccnc3)sc12 [Example 12, {6-(3-picolylamino)-2-[(pyridin-3-ylmethyl)-amino]-thieno[3,2-d]pyrimidin-4-yl}-thiophen-2-yl-methanone] |
